# Values quoted from earlier work in patent US20190289847A1, “SUSTAINED RELEASE FIBERS” (INVISTA TEXTILES (U.K.) LIMITED, priority 2016, published 2019).
# How the values were obtained:
# [1] = tested on: fleas and ticks; conditions: literature
# [2] = tested on: dust mites
compound,measurement,setting,value
O=C(Oc1ccccc1)c1ccccc1O [phenyl salicylate],effectiveness against fleas and ticks,[1],effective
same,duration of efficacy,"[2]; applied in a typical manner, i.e. topical application, at best",3-4 months
same,effectiveness against dust mites,[2]; literature,effective
